Results published in article PMC10082216 (Nature Communications, 2023).
Read-outs that look alike come from different tables or passages of the source.

Key:
female gametocytes = assay: 384-well microsphiltration readout 2 (anti-pfs25): retention of female gametocytes; type: cell-based; conditions: Plasmodium falciparum, read-out: IC50 during the screening campaign, only females stained
Method: Large scale microsphiltration was performed as previously described. Briefly, microsphiltration plates were prepared using a Biomek NX workstation (Beckman, cat. no. 989402) to load 15 μl of 25–45μm microspheres then 10 μl of a mixture of 30% 5–15μm and 70% (w/w) 15–25μm microspheres. The 384-well filter plates were then stored at -20 °C until use. In some of the 384-well microsphiltration plates leakage of microspheres occurred in one or more wells. The wells with leakages were sealed. Plates displaying more than 5 sealed wells were not used. Imaging plates were prepared by loading 30 μL of staining solution in each well of a collagen-coated plate. A different staining solution was used for each readout (1 and 2). Readout 1 counted both male and female gametocytes, using nucleic acid (Syto40, Thermo Fisher cat. no. S11351) and viability (MitoTracker Deep Red, Thermo Fisher cat. no. M22426) staining, and total RBCs using a cell membrane stain (CellMask Orange, Thermo Fisher cat. no. C10045). Readout 2 selectively quantified the retention and killing of female gametocytes. […] Imaging plates were incubated overnight at room temperature, then read in an OperaPhenix high-content confocal imaging system (Perkin Elmer, Waltham, MA, USA) and analyzed with Harmony high-content analysis software v. […]

[1] = system: F32-TEM P. falciparum strain; assay: Resistance selection by TD-6450 drug pulses, dose-response on F32-TEM; type: cell-based, Plasmodium falciparum; conditions: for Parental strain 1 (viability) / Parental strain 2 (viability) / Parental strain 3 (viability): No drug pulses; for IC50: Plasmodium falciparum
Method: To assess the ability of P. falciparum to develop resistance against TD-6450, we exposed F32-TEM line parasites, a reference artemisinin-sensitive P. falciparum strain[45], to the drug at 3 µM concentration for three days. We confirmed the absence of parasites on Giemsa-stained smears following exposure, then checked daily for parasite re-appearance in a drug-free culture flask.

[2] = system: stage V gametocytes of P. falciparum (3D7 pULG8-GFP strain); assay: Post-screening validation with 96-well plate microsphiltration (Paris); type: cell-based, Plasmodium falciparum; conditions: eight-hour exposure

Compound: CNC(=O)N1C[C@@H](C)N(c2ccc(C(=O)Nc3ccc(-c4ccc(-c5c[nH]c([C@@H]6CCCN6C(=O)[C@@H](NC(=O)OC)C(C)C)n5)cc4)c(OC(F)(F)F)c3)cn2)C[C@@H]1C [TD-6450]
- IC50 (female gametocytes): 2030 ± 350 nM
- Parental strain 1 (viability) ([1]; 5 µM): 1.88
- Parental strain 2 (viability) ([1]; 5 µM): 1.225
- Parental strain 3 (viability) ([1]; 5 µM): 1.766
- Parental strain 1 (viability) ([1]; 10 µM): 1.472
- Parental strain 2 (viability) ([1]; 10 µM): 0.6944
- Parental strain 3 (viability) ([1]; 10 µM): 1.083
- Parental strain 1 (viability) ([1]; 20 µM): 1.826
- Parental strain 2 (viability) ([1]; 20 µM): 0.509
- Parental strain 3 (viability) ([1]; 20 µM): 0.9281
- IC50 ([1]; F32, read-out: IC50, F32-TEM 5 pulses): 700 nM
- IC50 ([1]; F32, read-out: IC50, F32-TEM 10 pulses): 300 nM
- IC50 ([1]; F32, read-out: IC50, F32-TEM P.S.): 200 nM
- fold shift in IC50 ([1]; after five drug-killing pulses (3 µM, three days)): 3.5 fold
- fold shift in IC50 ([1]; after ten drug-killing pulses (3 µM, three days)): 1.5 fold
- concentration that significantly stiffens mature gametocytes [2]: 200 nM
